Experimental data as given in EP1226131B1, “ISOXAZOLECARBOXAMIDE DERIVATIVES” (RECORDATI INDUSTRIA CHIMICA E FARMACEUTICA S.p.a., priority 1999, dated 2001).
Read-outs that look alike come from different tables or passages of the source.

Key:
[1] = biological target: T1, recombinant α1d-adrenoceptor (Homo sapiens, UniProt P25100); experiment: Radioligand binding assay ([3H]prazosin) on cloned α1-adrenoceptor subtype, membranes of transfected cells
T1 sequence (P25100 1-572): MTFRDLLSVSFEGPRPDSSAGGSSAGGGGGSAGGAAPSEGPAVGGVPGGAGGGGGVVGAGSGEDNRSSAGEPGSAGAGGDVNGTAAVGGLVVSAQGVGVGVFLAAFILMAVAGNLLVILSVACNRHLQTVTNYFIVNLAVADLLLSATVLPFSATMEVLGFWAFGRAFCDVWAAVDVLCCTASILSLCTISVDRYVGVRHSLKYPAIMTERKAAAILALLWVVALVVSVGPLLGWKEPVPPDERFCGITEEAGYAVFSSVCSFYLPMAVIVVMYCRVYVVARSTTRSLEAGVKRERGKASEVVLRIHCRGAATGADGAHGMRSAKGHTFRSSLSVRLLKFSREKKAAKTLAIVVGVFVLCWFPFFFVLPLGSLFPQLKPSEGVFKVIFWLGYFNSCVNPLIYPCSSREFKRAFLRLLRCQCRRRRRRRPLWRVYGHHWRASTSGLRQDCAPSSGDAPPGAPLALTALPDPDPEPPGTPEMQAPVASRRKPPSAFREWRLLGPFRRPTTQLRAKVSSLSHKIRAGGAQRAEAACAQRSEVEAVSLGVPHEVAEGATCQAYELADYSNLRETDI
Protocol: (§2) Determination of affinity for cloned subtypes of the cloned α1-adrenoceptor was performed in membranes from cells transfected by electroporation with DNA expressing the genes encoding each α1-adrenoceptor subtype.
(§3) Non-specific binding was determined in the presence of 10 µM phentolamine. Incubation was stopped by addition of ice-cold Tris buffer and rapid filtration through 0.2%-polyethyleneimine pretreated Schleicher & Schuell GF52 filters. […] The homogenates were centrifuged at 40000 × g × 20 minutes and the membranes were resuspended in a small volume of ice-cold buffer containing Tris 5 mM and EDTA 5 mM (pH 7.4) and immediately frozen and stored at -70°C until use.

[2] = system: diastolic blood pressure (DBP); experiment: Effect on diastolic blood pressure in anaesthetised dogs, i.v. administration; type: in vivo; conditions: dog, dose inducing a 25% decrease in diastolic blood pressure, one value spanning c3 and c4
Protocol: The experiments were performed according to the method of Imagawa J. et al., J Pharmacol. Methods 22, 103-111 (1989), with substantial modifications, as follows: adult male beagle dogs, weighing 8-10 kg, were anaesthetised with pentobarbital sodium (30 mg/kg i.v. and 2 mg/kg/h i.v.), intubated and spontaneously ventilated with room air. In order to monitor systemic blood pressure (BP), a polyethylene (PE) catheter was introduced into the aortic arch through the left femoral artery. A collateral of the left femoral vein was cannulated for infusion of anaesthetic, and the right femoral vein was cannulated for administration of the compounds. For intraarterial (i.a.) injection of noradrenaline (NA), a PE catheter was introduced into the lower portion of the abdominal aorta via the right external iliac artery. Through such procedure, NA was selectively distributed to the lower urinary tract. A paramedian vertical suprapubic incision extending from the base of the pelvis to the mid-abdominal region was made and the bladder and the prostate were exposed. The bladder was manually emptied with a syringe. […] The distal end of the right or left branch of the nerve was placed on a bipolar platinum electrode. Prostatic urethral pressure was monitored with a Mikro-tip catheter (5F) introduced into the bladder via the external urethral meatus, and withdrawn until the pressure transducer was positioned in the prostatic region of the urethra. A ligature was secured between the neck of the bladder and urethra to isolate the response of the latter and to avoid any interaction with the bladder. Another ligature was put around the Mikro-tip catheter at the external meatus, to secure the catheter itself. The hypogastric nerve stimulation was made with a train of rectangular pulses of 10-15 V, 10-30 Hz, width 5 msec, 8 sec duration.
After a stabilising period following the surgical procedure (30 minutes), in which arterial and prostatic urethral pressure were continuously monitored as basal values, i.a. administration of NA and stimulation of the hypogastric nerve were alternately made at intervals of 10 minutes.
The dose of NA and the parameter of hypogastric nerve stimulation chosen were such as to produce an increase of at least 100% in urethral pressure. The test compounds were administered i.v. in a cumulative manner with intervals of 15-20 min between administrations. Both i.a. injections of NA and stimulations of the hypogastric nerve were repeated 5 minutes after every dosing of test compound with intervals of about 5 minutes between two stimulations. […]

[3] = system: urethral contractions (UP) induced by noradrenaline (NA); experiment: Urethral contractions induced by noradrenaline injection in anaesthetised dogs, i.v. administration; type: in vivo; conditions: dog; for ED50: Canis lupus familiaris, iv, dose inhibiting by 50% urethral contractions induced by noradrenaline, read-out: UP ID50 NA; for R1 (DBP/NA): ratio DBP ED25 / UP ID50 NA
Protocol: (§1) The experiments were performed according to the method of Imagawa J. et al., J Pharmacol. Methods 22, 103-111 (1989), with substantial modifications, as follows: adult male beagle dogs, weighing 8-10 kg, were anaesthetised with pentobarbital sodium (30 mg/kg i.v. and 2 mg/kg/h i.v.), intubated and spontaneously ventilated with room air. In order to monitor systemic blood pressure (BP), a polyethylene (PE) catheter was introduced into the aortic arch through the left femoral artery. A collateral of the left femoral vein was cannulated for infusion of anaesthetic, and the right femoral vein was cannulated for administration of the compounds. For intraarterial (i.a.) injection of noradrenaline (NA), a PE catheter was introduced into the lower portion of the abdominal aorta via the right external iliac artery. Through such procedure, NA was selectively distributed to the lower urinary tract. A paramedian vertical suprapubic incision extending from the base of the pelvis to the mid-abdominal region was made and the bladder and the prostate were exposed. The bladder was manually emptied with a syringe. […] The distal end of the right or left branch of the nerve was placed on a bipolar platinum electrode. Prostatic urethral pressure was monitored with a Mikro-tip cathe[…]) introduced into the bladder via the external urethral meatus, and withdrawn until the pressure transducer was positioned in the prostatic region of the urethra. A ligature was secured between the neck of the bladder and urethra to isolate the response of the latter and to avoid any interaction with the bladder. Another ligature was put around the Mikro-tip catheter at the external meatus, to secure the catheter itself. […] Both i.a. injections of NA and stimulations of the hypogastric nerve were repeated 5 minutes after every dosing of test compound with intervals of about 5 minutes between two stimulations. In order to compare the effects of the administered compound, dose/response curves were constructed by computing, at the peak effect, the percent decrease in diastolic blood pressure and the percent inhibition of the increase in urethral pressure induced by both types of stimulation used.

[4] = system: urethral contractions (UP) induced by hypogastric-nerve stimulation (HYP); experiment: Urethral contractions induced by hypogastric-nerve stimulation in anaesthetised dogs, i.v. administration; type: in vivo; conditions: Canis lupus familiaris, iv, dog, dose inhibiting by 50% urethral contractions induced by hypogastric-nerve stimulation, read-out: UP ID50 HYP
Protocol: as §1, with “In order to compare the effects of the administered compound, dose/response curves were constructed by computing, at the peak effect, the percent decrease in diastolic blood pressure and the percent inhibition of the increase in urethral pressure induced by both types of stimulation used.” left out

[5] = biological target: T2, α1a adrenergic receptor (Homo sapiens, UniProt P35348); experiment: Radioligand binding assay ([3H]prazosin) on cloned α1-adrenoceptor subtype, membranes of transfected cells
T2 sequence (P35348 1-466): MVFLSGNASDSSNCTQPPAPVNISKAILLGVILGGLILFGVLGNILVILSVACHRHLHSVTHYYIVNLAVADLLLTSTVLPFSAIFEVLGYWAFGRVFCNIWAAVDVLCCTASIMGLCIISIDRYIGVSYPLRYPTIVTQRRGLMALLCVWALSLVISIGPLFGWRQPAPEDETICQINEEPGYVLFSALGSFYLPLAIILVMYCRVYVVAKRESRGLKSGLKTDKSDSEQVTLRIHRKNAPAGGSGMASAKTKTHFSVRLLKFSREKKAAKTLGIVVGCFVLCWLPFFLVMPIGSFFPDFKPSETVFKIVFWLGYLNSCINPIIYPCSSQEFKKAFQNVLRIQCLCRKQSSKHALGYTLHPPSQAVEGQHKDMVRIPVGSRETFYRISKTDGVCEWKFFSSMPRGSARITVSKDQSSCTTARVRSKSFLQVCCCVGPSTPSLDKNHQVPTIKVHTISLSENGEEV
Protocol: as §2, §3

[6] = biological target: T3, human 5-HT1A-serotoninergic receptor (Homo sapiens, UniProt P08908); experiment: Radioligand binding assay ([3H]8-OH-DPAT) on membranes of transfected HeLa cells; conditions: human receptor in HeLa cells, read-out: Affinity (Ki, nM) 5-HT1A
T3 construct: expressed in transfected cells; host or cells: HeLa
T3 sequence (P08908 1-422): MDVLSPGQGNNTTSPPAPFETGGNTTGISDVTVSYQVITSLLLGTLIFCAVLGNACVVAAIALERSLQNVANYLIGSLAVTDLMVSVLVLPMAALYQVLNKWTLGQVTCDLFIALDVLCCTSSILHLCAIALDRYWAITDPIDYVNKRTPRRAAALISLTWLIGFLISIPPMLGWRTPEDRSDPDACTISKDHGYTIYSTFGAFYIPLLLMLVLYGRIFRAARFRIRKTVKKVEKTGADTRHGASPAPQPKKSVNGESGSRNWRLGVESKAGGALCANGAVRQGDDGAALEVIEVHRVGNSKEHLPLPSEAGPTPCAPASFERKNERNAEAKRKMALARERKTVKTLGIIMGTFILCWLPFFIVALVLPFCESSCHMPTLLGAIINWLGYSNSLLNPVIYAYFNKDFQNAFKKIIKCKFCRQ
Description: Data were expressed as mean of Ki.

[7] = system: α1L adrenoceptor; experiment: Functional antagonism of noradrenaline-induced contractions of rabbit aorta pretreated with chloroethylclonidine; type: biochemical; conditions: functional affinity, NA-induced contractions
Protocol: Adult male New Zealand rabbits were sacrificed by cervical dislocation. The aorta was removed, placed in Krebs-Henseleit buffer and dissected free of adhering tissue.
Each antagonist concentration was tested using 2-3 aortic rings from different rabbits.
Dose ratios (i.e., the ratio between the concentrations of noradrenaline required to produce half-maximal response in the presence and in the absence of the test antagonist) were calculated at each concentration of the compounds.

[8] = read-out: Affinity (Ki, nM) α1d, recombinant receptor, [3H]prazosin

SMILES	Ki [1] [nM]	Ki [5] [nM]	also measured
Cc1onc(-c2ccccc2)c1C(=O)NCCCN1CCN(c2ccc(F)cc2OCC(F)(F)F)CC1 [Example 6, N-{3-[4-[4-Fluoro-2-(2,2,2-trifluoroethoxy)-phenyl]-1-piperazinyl]-propyl}-5-methyl-3-phenylisoxazole-4-carboxamide]			Ki [1, 8]: 18.9 nM; DBP ED25 [2]: 196.7 µg/kg; ED50 [3]: 2.4 µg/kg; R1 (DBP/NA) [3]: 82; ED50 [4]: 4.5 µg/kg
Cc1onc(-c2c(F)cccc2Cl)c1C(=O)NCCCN1CCN(c2ccc(F)cc2OCC(F)(F)F)CC1 [Example 9, 3-(2-Chloro-6-fluorophenyl)-N-{3-[4-[4-fluoro-2-(2,2,2-trifluoroethoxy)-phenyl]-1-piperazinyl]-propyl}-5-methylisoxazole-4-carboxamide]	6.15	0.4	
Cc1onc(-c2c(Cl)cccc2Cl)c1C(=O)NCCCN1CCN(c2ccc(F)cc2OCC(F)(F)F)CC1 [Example 10, 3-(2,6-Dichlorophenyl)-N-{3-[4-[4-fluoro-2-(2,2,2-trifluoroethoxy)-phenyl]-1-piperazinyl]-propyl}-5-methylisoxazole-4-carboxamide.]	38.6	2.28	
COc1ccc(Cl)cc1N1CCN(CCCNC(=O)c2c(-c3ccccc3)noc2C)CC1 [Example 1, N-{3-[4-(5-Chloro-2-methoxyphenyl)-1-piperazinyl]-propyl}-5-methyl-3-phenylisoxazole-4-carboxamide]			Ki [1, 8]: 2.72 nM; DBP ED25 [2]: 345.4 µg/kg; ED50 [3]: 3.4 µg/kg; R1 (DBP/NA) [3]: 101.6
O=C(NCCCN1CCN(c2ccc(F)cc2OCC(F)(F)F)CC1)c1conc1-c1ccc(F)cc1 [Example 8, 3-(4-Fluorophenyl)-N-{3-[4-[4-fluoro-2-(2,2,2-trifluoroethoxy)-phenyl]-1-piperazinyl]-propyl}-isoxazole-4-carboxamide]	25.8	0.11	
Cc1onc(-c2ccccc2)c1C(=O)NCCCN1CCN(c2cc(F)ccc2OCC(F)(F)F)CC1 [Example 5, N-{3-[4-[5-Fluoro-2-(2,2,2-trifluoroethoxy)-phenyl]-1-piperazinyl]-propyl}-5-methyl-3-phenylisoxazole-4-carboxamide]			pKb [7]: 8.79; DBP ED25 [2]: 197.0 µg/kg; ED50 [3]: 2.7 µg/kg; R1 (DBP/NA) [3]: 73; ED50 [4]: 3.4 µg/kg

More lines, main results first:

Ki [1] [nM]	Ki [5] [nM]	SMILES	also measured
128	17	COc1ccc(OCC(F)(F)F)cc1N1CCN(CCCNC(=O)c2c(-c3ccccc3)noc2C)CC1 [Example 4, N-{3-[4-[2-Methoxy-5-(2,2,2-trifluoroethoxy)phenyl]-1-piperazinyl]-propyl}-5-methyl-3-phenylisoxazole-4-carboxamide]	Ki [6]: > 1000 nM
4.66	0.12	Cc1onc(-c2ccccc2Cl)c1C(=O)NCCCN1CCN(c2ccc(F)cc2OCC(F)(F)F)CC1 [Example 11]	
25.2	1.16	Cc1onc(-c2ccccc2)c1C(=O)NCCCN1CCN(c2cc(Cl)ccc2O)CC1 [Example 2, N-{3-[4-(5-Chloro-2-hydroxyphenyl)-1-piperazinyl]-propyl}-5-methyl-3-phenylisoxazole-4-carboxamide]	
38.9	0.918	Cc1onc(-c2ccccc2)c1C(=O)NCCCN1CCN(c2cc(Cl)ccc2OS(=O)(=O)C(F)(F)F)CC1 [Example 7, N-{3-[4-[(5-Chloro-2-trifluoromethanesulphonyloxy)-phenyl]-1-piperazinyl]-propyl}-5-methyl-3-phenylisoxazole-4-carboxamide]	Ki [6]: 1000 nM
2.19	0.16	Cc1onc(-c2c(F)cccc2Cl)c1C(=O)NCCCN1CCN(c2ccccc2OCC(F)(F)F)CC1 [Example 12, 3-(2-Chloro-6-fluorophenyl)-5-methyl-N-{3-[4-[2-(2,2,2-trifluoroethoxy)phenyl)-1-piperazinyl]-propyl}-isoxazole-4-carboxamide]	
